# Test results taken from patent US11814375B2, “Heterocyclic compounds” (Hoffmann-La Roche Inc., priority 2019, dated 2023).
# Target: T1, MAGL (Homo sapiens, UniProt Q99685)
# T1 sequence (Q99685 1-303): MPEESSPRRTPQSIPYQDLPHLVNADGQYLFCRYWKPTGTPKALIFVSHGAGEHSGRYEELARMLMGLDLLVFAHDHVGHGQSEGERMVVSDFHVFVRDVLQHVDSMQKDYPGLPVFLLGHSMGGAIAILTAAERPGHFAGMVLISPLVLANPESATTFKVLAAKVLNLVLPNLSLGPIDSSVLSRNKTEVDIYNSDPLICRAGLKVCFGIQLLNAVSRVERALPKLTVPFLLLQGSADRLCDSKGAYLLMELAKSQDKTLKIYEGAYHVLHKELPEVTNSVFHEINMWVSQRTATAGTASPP
# Assay: 2-AG assay: MAGL inhibitory activity by hydrolysis of 2-arachidonoylglycerol to arachidonic acid, followed by mass spectrometry
# Format: biochemical
# Conditions: 8 μM 2-arachidonoylglycerol, 15 min preincubation and 30 min reaction at RT, arachidonic acid/d8-arachidonic acid ratio by MS
# Experimental: Compounds of formula (I) were profiled for MAGL inhibitory activity by determining the enzymatic activity by following the hydrolysis of the natural substrate 2-arachidonoylglycerol (2-AG) resulting in arachidonic acid, which can be followed by mass spectrometry. This assay is hereinafter abbreviated “2-AG assay”.
# The 2-AG assay was carried out in 384 well assay plates (PP, Greiner Cat #784201) in a total volume of 20 μL. Compound dilutions were made in 100% DMSO (VWR Chemicals 23500.297) in a polypropylene plate in 3-fold dilution steps to give a final concentration range in the assay from 12.5 μM to […]. 0.25 μL compound dilutions (100% DMSO) were added to 9 μL MAGL in assay buffer (50 mM TRIS (GIBCO, 15567-027), 1 mM EDTA (Fluka, 03690-100 mL), 0.01% (v/v) Tween. After shaking, the plate was incubated for 15 min at RT. To start the reaction, 10 μL 2-arachidonoylglycerol in assay buffer was added. The final concentrations in the assay was […] and 8 μM 2-arachidonoylglyerol. After shaking and 30 min incubation at RT, the reaction was quenched by the addition of 40 μL of ACN containing 4 μM of d8-arachidonic acid. The amount of arachidonic acid was traced by an online SPE system (Agilent Rapidfire) coupled to a triple quadrupole mass spectrometer (Agilent 6460). A C18 SPE cartridge (G9205A) was used in an ACN/water liquid setup. The mass spectrometer was operated in negative electrospray mode following the mass transitions 303.1→259.1 for arachidonic acid and 311.1→267.0 for d8-arachidonic acid. The activity of the compounds was calculated based on the ratio of intensities [arachidonic acid/d8-arachidonic acid].
row,IC50 [nM],SMILES
1,0.2,"N#Cc1ccccc1Oc1ccc(C2CN(C(=O)N3CC[C@@H]4OCC(=O)N[C@@H]4C3)C2)cc1 [Example 23, (+)-2-[4-[1-[(4aR,8aS)-3-Oxo-4,4a,5,7,8,8a-hexahydropyrido[4,3-b][1,4]oxazine-6-carbonyl]azetidin-3-yl]phenoxy]benzonitrile]"
2,0.05,"O=C1CO[C@H]2CCN(C(=O)N3CC(c4ccc(Oc5ccc(F)cc5)cc4)C3)C[C@H]2N1 [Example 16, (+)-(4aR,8aS)-6-[3-[4-(4-Fluorophenoxy)phenyl]azetidine-1-carbonyl]-4,4a,5,7,8,8a-hexahydropyrido[4,3-b][1,4]oxazin-3-one]"
3,0.5,"Cc1ccncc1Oc1ccc(C2CN(C(=O)N3CC[C@@H]4OCC(=O)N[C@@H]4C3)C2)cc1 [Example 7, (+)-(4aR,8aS)-6-[3-[4-[(4-Methyl-3-pyridyl)oxy]phenyl]azetidine-1-carbonyl]-4,4a,5,7,8,8a-hexahydropyrido[4,3-b][1,4]oxazin-3-one]"
4,0.06,"O=C1CO[C@H]2CCN(C(=O)N3CC(c4ccc(Oc5cccc(Cl)c5)cc4)C3)C[C@H]2N1 [Example 20, (+)-(4aR,8aS)-6-[3-[4-(3-Chlorophenoxy)phenyl]azetidine-1-carbonyl]-4,4a,5,7,8,8a-hexahydropyrido[4,3-b][1,4]oxazin-3-one]"
5,2.7,"O=C1CO[C@H]2CCN(C(=O)N3CC(c4ccc(-c5ncccc5Cl)cc4)C3)C[C@H]2N1 [Example 33, (4aR,8aS)-6-[3-[4-(3-Chloro-2-pyridyl)phenyl]azetidine-1-carbonyl]-4,4a,5,7,8,8a-hexahydropyrido[4,3-b][1,4]oxazin-3-one]"

# The next lines start with the compound.
row,SMILES,IC50 [nM]
1,"Cn1nccc1-c1ccc(C2CN(C(=O)N3CC[C@@H]4OCC(=O)N[C@@H]4C3)C2)cc1 [Example 46, (4aR,8aS)-6-[3-[4-(2-Methylpyrazol-3-yl)phenyl]azetidine-1-carbonyl]-4,4a,5,7,8,8a-hexahydropyrido[4,3-b][1,4]oxazin-3-one]",17.5
2,"Cc1cc(C)n(-c2ccc(C3CN(C(=O)N4CC[C@@H]5OCC(=O)N[C@@H]5C4)C3)cc2)n1 [Example 35, (4aR,8aS)-6-[3-[4-(3,5-Dimethylpyrazol-1-yl)phenyl]azetidine-1-carbonyl]-4,4a,5,7,8,8a-hexahydropyrido[4,3-b][1,4]oxazin-3-one]",17.4
3,"Cc1cc(Oc2ccc(C3CN(C(=O)N4CC[C@@H]5OCC(=O)N[C@@H]5C4)C3)cc2)c(C)nn1 [Example 51, (4aR,8aS)-6-[3-[4-(3,6-Dimethylpyridazin-4-yl)oxyphenyl]azetidine-1-carbonyl]-4,4a,5,7,8,8a-hexahydropyrido[4,3-b][1,4]oxazin-3-one]",124
4,"O=C1CO[C@H]2CCN(C(=O)N3CC(c4ccc(-c5ccnc(F)c5)cc4)C3)C[C@H]2N1 [Example 44, (4aR,8aS)-6-[3-[4-(2-Fluoropyridin-4-yl)phenyl]azetidine-1-carbonyl]-4,4a,5,7,8,8a-hexahydropyrido[4,3-b][1,4]oxazin-3-one]",67.7
5,"Cn1ccc(-c2ccc(C3CN(C(=O)N4CC[C@@H]5OCC(=O)N[C@@H]5C4)C3)cc2)n1 [Example 42, (4aR,8aS)-6-[3-[4-(1-Methylpyrazol-3-yl)phenyl]azetidine-1-carbonyl]-4,4a,5,7,8,8a-hexahydropyrido[4,3-b][1,4]oxazin-3-one]",153
